Results reported in patent publication US20240082269A1, “METHODS AND PRODUCTS INCLUDING SPECIFIC CANNABINOIDS” (priority 2022, published 2024).

Test: Four Hempson Oil studies taken together (safety, overall THCV effect)
Format: in vivo, human
Conditions: daily use of 8 mg doses of THCV over 60-180 days
From the text: The following pre-clinical and clinical research has shown that small daily oral amounts of Hempson Oil®—a hemp-extract high in cannabidiol (CBD), tetrahydrocannabivarin (THCV), and cannabidivarin (CBDV)—have consistent effects of weight loss, reduction in abdominal girth, blood sugar (HgbA1c) and blood lipid ratios. These comparative examples are shown merely for the effect the active ingredients may have upon metabolic disorders and weight loss.
The Hempson Oil Studies: from 2019 until April 2021, several independent high quality human trials were completed using an oral Hempson® oil in a micellized tincture or non-micellized oil in gel caps. All of the studies were NIH-supported. All studies were double-blind, placebo-controlled, multisite, and randomized effectiveness studies of a hemp extract, known as Hempson® oil that is high in CBD, THCV, and CBDV. The studies used either type II diabetics, obese or healthy adults. The studies done with micellized oil tincture used lower doses with micellized Hempson® oil because of increased the absorption and bioavailability of the cannabinoids.
In each study, subjects were randomly assigned to either the Hempson Oil® group (100 subjects) or the control group (50 subjects). Each subject signed a study consent form. Subjects were instructed to orally ingest this study product once daily. All subjects were instructed not to change their eating, drinking, or exercise habits for the duration of this study.
All of the study results reported below were statistically significant (p<0.05) compared to placebo results.

CCCc1cc(O)c2c(c1)OC(C)(C)[C@@H]1CCC(C)=C[C@@H]21 [THCV, tetrahydrocannabivarin]
A1C blood levels (diabetic measure): decrease in A1C blood levels | Abdominal girth: decrease of abdominal girth | Weight: statistically significant weight loss
